Experimental data taken from US20240024273A1, “TOPICAL ADMINISTRATION OF 2-(DIETHYLAMINO)ETHYL 2-(4-ISOBUTYLPHENYL)PROPRIONATE FOR TREATMENT OF DISEASES” (TECHFIELDS PHARMA CO., LTD., priority 2020, published 2024).

System: Mild to Moderate Osteoarthritis of the Knee
Assay: Phase 2 study: WOMAC (VAS) pain subscale score, target knee
Format: in vivo, human
Settings: for Change of WOMAC pain score from baseline (±SEM) / Percentage of improvement from baseline, WOMAC pain score: all patients taken as active
From the text: This is a Phase 2, multicenter, randomized, double blind (within dose), placebo controlled, parallel group, proof of concept, and dose range finding study to evaluate the efficacy, safety, and PK of 2-(diethylamino)ethyl 2-(4-isobutylphenyl)propionate hydrochloride spray in adult subjects with clinically symptomatic mild to moderate OA of the knee. For subjects with bilateral knee pain, both knees will be treated, but the most symptomatic knee (i.e., the most painful knee as measured by the Western Ontario and McMaster University Osteoarthritis Index [WOMAC® 3.1] pain subscale score at Screening) will be designated as the target knee for efficacy analyses. For subjects with unilateral knee pain, only the symptomatic (target) knee will be treated.
After a Screening Period of up to 3 weeks and radiographic evaluation of the target knee joint space, a subject will be randomly assigned to 1 of 3 treatment groups in a 1:1:1 ratio with a 2:1 ratio of active:placebo within each treatment group (ie, 2 subjects to active treatment and 1 subject to placebo): • Group A: 8.75 mg 2-(diethylamino)ethyl 2-(4-isobutylphenyl)propionate/knee (2 sprays/knee, one spray to the medial surface and one spray to the lateral surface of the knee), twice daily (BID, approximately every 12 hours; n=50) or placebo (2 sprays/knee), BID (approximately every 12 hours; n=25) for a total of 4 sprays per knee per day; • Group B: 17.5 mg 2-(diethylamino)ethyl 2-(4-isobutylphenyl)propionate/knee (4 sprays/knee, one spray to the medial surface and one spray to the lateral surface of the knee, and one spray to front and one spray to the back of the knee), BID (approximately every 12 hours; n=50) or placebo (4 sprays/knee), BID (approximately every 12 hours; n=25) for a total of 8 sprays per knee per day; • Group C: 35 mg 2-(diethylamino)ethyl 2-(4-isobutylphenyl)propionate/knee (8 sprays/knee, each spray is to be applied to a different non-overlapping area around the knee, and the areas are to be uniformly distributed around the knee), BID (approximately every 12 hours; n=50) or placebo (8 sprays/knee), BID (approximately every 12 hours; n=25) for a total of 16 sprays per knee per day.
The VAS version of the WOMAC will be used for the Primary and Secondary Efficacy Endpoints. Efficacy endpoints will be assessed at Screening and Baseline (Day 1) and at the Week 2, Week 4, Week 8, and Week 12/EOS visits.
The Primary Efficacy Endpoint is the change from Baseline in the WOMAC (VAS) pain subscale score for the target knee at […] of treatment.
3.9.2. Secondary Efficacy Endpoints: • 1. Change from Baseline in the WOMAC (VAS) pain subscale score for the target knee at 2, 4, and 8 weeks of treatment; • 2. Change from Baseline in the WOMAC (VAS) stiffness subscale scores for the target knee and WOMAC (VAS) functional ability subscale scores at 2, 4, 8, and 12 weeks of treatment; • 3. Change from Baseline in the overall WOMAC (VAS) score at 2, 4, 8, and 12 weeks of treatment.
The Primary Efficacy Endpoint is change from Baseline in the WOMAC (VAS) pain subscale score for the target knee at 4 weeks of treatment, and will be analyzed using an analysis of covariance (ANCOVA). Treatment will be included as a fixed class effect and WOMAC Baseline pain subscale score as covariates. The primary comparisons of interest will be the difference between active Group A (8.75 mg 2-(diethylamino)ethyl 2-(4-isobutylphenyl)propionate/knee) and combined placebo, active Group B (17.5 mg 2-(diethylamino)ethyl 2-(4-isobutylphenyl)propionate/knee) and combined placebo, and active Group C (35 mg 2-(diethylamino)ethyl 2-(4-isobutylphenyl)propionate/knee) and combined placebo. […]

[1] = 8.75 mg/knee (BID), Follow up (week 13, day 91)
[2] = 8.75 mg/knee (BID), Week 2 (day 14)
[3] = 8.75 mg/knee (BID), Week 4 (day 28)
[4] = 8.75 mg/knee (BID), Week 8 (day 56)
[5] = 8.75 mg/knee (BID), Week 12 (day 84)
[6] = 17.5 mg/knee (BID), Follow up (week 13, day 91)
[7] = 17.5 mg/knee (BID), Week 2 (day 14)
[8] = 17.5 mg/knee (BID), Week 4 (day 28)
[9] = 17.5 mg/knee (BID), Week 8 (day 56)
[10] = 17.5 mg/knee (BID), Week 12 (day 84)
[11] = 35 mg/knee (BID), Follow up (week 13, day 91)
[12] = 35 mg/knee (BID), Week 2 (day 14)
[13] = 35 mg/knee (BID), Week 4 (day 28)
[14] = 35 mg/knee (BID), Week 8 (day 56)
[15] = 35 mg/knee (BID), Week 12 (day 84)

## CCN(CC)CCOC(=O)C(C)c1ccc(CC(C)C)cc1 (stereo not drawn) [2-(diethylamino)ethyl 2-(4-isobutylphenyl)propionate]
[1]
  Change of WOMAC pain score from baseline (±SEM), adjusted by […] of the testing drug amount: −34.5(±5.6) mm
  Percentage of improvement from baseline, WOMAC pain score, adjusted by […] of the testing drug amount: −57.6%
  Change of WOMAC pain score from baseline (±SEM): −20.1(±3.25) mm
  Percentage of improvement from baseline, WOMAC pain score: −33.6%
[2]
  Change of WOMAC pain score from baseline (±SEM), adjusted by […] of the testing drug amount: −19.2(±4.1) mm
  Percentage of improvement from baseline, WOMAC pain score, adjusted by […] of the testing drug amount: −32.1%
  Change of WOMAC pain score from baseline (±SEM): −11.2(±2.39) mm
  Percentage of improvement from baseline, WOMAC pain score: −18.7%
[3]
  Change of WOMAC pain score from baseline (±SEM), adjusted by […] of the testing drug amount: −29.2(±4.8) mm
  Percentage of improvement from baseline, WOMAC pain score, adjusted by […] of the testing drug amount: −48.7%
  Change of WOMAC pain score from baseline (±SEM): −17.0(±2.79) mm
  Percentage of improvement from baseline, WOMAC pain score: −28.4%
[4]
  Change of WOMAC pain score from baseline (±SEM), adjusted by […] of the testing drug amount: −36.7(±4.8) mm
  Percentage of improvement from baseline, WOMAC pain score, adjusted by […] of the testing drug amount: −61.4%
  Change of WOMAC pain score from baseline (±SEM): −21.4(±2.81) mm
  Percentage of improvement from baseline, WOMAC pain score: −35.8%
[5]
  Change of WOMAC pain score from baseline (±SEM), adjusted by […] of the testing drug amount: −37.0(±5.4) mm
  Percentage of improvement from baseline, WOMAC pain score, adjusted by […] of the testing drug amount: −61.9%
  Change of WOMAC pain score from baseline (±SEM): −21.6(±3.13) mm
  Percentage of improvement from baseline, WOMAC pain score: −36.1%
[6]
  Change of WOMAC pain score from baseline (±SEM), adjusted by […] of the testing drug amount: −37.9(±5.2) mm
  Percentage of improvement from baseline, WOMAC pain score, adjusted by […] of the testing drug amount: −62.1%
  Change of WOMAC pain score from baseline (±SEM): −22.1(±3.01) mm
  Percentage of improvement from baseline, WOMAC pain score: −36.2%
[7]
  Change of WOMAC pain score from baseline (±SEM), adjusted by […] of the testing drug amount: −25.7(±3.7) mm
  Percentage of improvement from baseline, WOMAC pain score, adjusted by […] of the testing drug amount: −42.2%
  Change of WOMAC pain score from baseline (±SEM): −15.0(±2.18) mm
  Percentage of improvement from baseline, WOMAC pain score: −24.6%
[8]
  Change of WOMAC pain score from baseline (±SEM), adjusted by […] of the testing drug amount: −35.2(±4.8) mm
  Percentage of improvement from baseline, WOMAC pain score, adjusted by […] of the testing drug amount: −57.6%
  Change of WOMAC pain score from baseline (±SEM): −20.5(±2.79) mm
  Percentage of improvement from baseline, WOMAC pain score: −33.6%
[9]
  Change of WOMAC pain score from baseline (±SEM), adjusted by […] of the testing drug amount: −43.1(±4.9) mm
  Percentage of improvement from baseline, WOMAC pain score, adjusted by […] of the testing drug amount: −70.5%
  Change of WOMAC pain score from baseline (±SEM): −25.1(±2.88) mm
  Percentage of improvement from baseline, WOMAC pain score: −41.1%
[10]
  Change of WOMAC pain score from baseline (±SEM), adjusted by […] of the testing drug amount: −45.5(±5.0) mm
  Percentage of improvement from baseline, WOMAC pain score, adjusted by […] of the testing drug amount: −74.4%
  Change of WOMAC pain score from baseline (±SEM): −26.5(±2.94) mm
  Percentage of improvement from baseline, WOMAC pain score: −43.4%
[11]
  Change of WOMAC pain score from baseline (±SEM), adjusted by […] of the testing drug amount: −41.2(±5.3) mm
  Percentage of improvement from baseline, WOMAC pain score, adjusted by […] of the testing drug amount: −69.5%
  Change of WOMAC pain score from baseline (±SEM): −24.0(±3.09) mm
  Percentage of improvement from baseline, WOMAC pain score: −40.5%
[12]
  Change of WOMAC pain score from baseline (±SEM), adjusted by […] of the testing drug amount: −21.6(±4.0) mm
  Percentage of improvement from baseline, WOMAC pain score, adjusted by […] of the testing drug amount: −36.5%
  Change of WOMAC pain score from baseline (±SEM): −12.6(±2.33) mm
  Percentage of improvement from baseline, WOMAC pain score: −21.3%
[13]
  Change of WOMAC pain score from baseline (±SEM), adjusted by […] of the testing drug amount: −30.4(±4.4) mm
  Percentage of improvement from baseline, WOMAC pain score, adjusted by […] of the testing drug amount: −51.2%
  Change of WOMAC pain score from baseline (±SEM): −17.7(±2.54) mm
  Percentage of improvement from baseline, WOMAC pain score: −29.9%
[14]
  Change of WOMAC pain score from baseline (±SEM), adjusted by […] of the testing drug amount: −38.1(±5.1) mm
  Percentage of improvement from baseline, WOMAC pain score, adjusted by […] of the testing drug amount: −64.3%
  Change of WOMAC pain score from baseline (±SEM): −22.2(±2.97) mm
  Percentage of improvement from baseline, WOMAC pain score: −37.5%
[15]
  Change of WOMAC pain score from baseline (±SEM), adjusted by […] of the testing drug amount: −43.6(±5.2) mm
  Percentage of improvement from baseline, WOMAC pain score, adjusted by […] of the testing drug amount: −73.6%
  Change of WOMAC pain score from baseline (±SEM): −25.4(±3.04) mm
  Percentage of improvement from baseline, WOMAC pain score: −42.9%
